Experimental data from PMC7104248, “Discovery of Taniborbactam (VNRX-5133): A Broad-Spectrum Serine- and Metallo-β-lactamase Inhibitor for Carbapenem-Resistant Bacterial Infections” (Journal of Medicinal Chemistry, 2019).
Converted amounts (≈) assume the structure as drawn.

Key:
NDM-1 = NDM-1 (Klebsiella pneumoniae, UniProt C7C422); experiment: biochemical
IMP-1 = IMP-1 (Serratia marcescens, UniProt P52699); experiment: β-lactamase inhibition assay, nitrocefin substrate; type: biochemical
[1] = test system: K. pneumoniae expressing KPC-2; experiment: broth microdilution MIC, meropenem potentiation; type: cell-based; conditions: Klebsiella pneumoniae, read-out: MIC of meropenem alone
[2] = test system: K. pneumoniae expressing OXA-48; experiment: broth microdilution MIC, meropenem potentiation; type: cell-based; conditions: Klebsiella pneumoniae, read-out: MIC of meropenem alone
[3] = test system: K. pneumoniae expressing KPC-2 and VIM-4; experiment: broth microdilution MIC, meropenem potentiation; type: cell-based; conditions: Klebsiella pneumoniae, read-out: MIC of meropenem alone
[4] = test system: P. aeruginosa expressing VIM-2; experiment: broth microdilution MIC, meropenem potentiation; type: cell-based; conditions: Pseudomonas aeruginosa, read-out: MIC of meropenem alone
[5] = test system: K. pneumoniae ATCC BAA 1705 (KPC-2); experiment: MIC, rescue of β-lactams in MDR clinical isolates; type: cell-based; conditions: Klebsiella pneumoniae, BAA1705; read-out: FEP MIC
[6] = test system: K. pneumoniae CDC-0040 (VIM-27, CTX-M-15, SHV-11, OXA-1); experiment: MIC, rescue of β-lactams in MDR clinical isolates; type: cell-based; conditions: Klebsiella pneumoniae, read-out: FEP MIC
[7] = test system: E. coli CDC-0055 (NDM-1, CMY-6, OXA-1); experiment: MIC, rescue of β-lactams in MDR clinical isolates; type: cell-based; conditions: Escherichia coli; read-out: FEP MIC
[8] = test system: K. pneumoniae CDC-0066 (OXA-232, OXA-9, TEM-1A, CTX-M-15, OXA-1); experiment: MIC, rescue of β-lactams in MDR clinical isolates; type: cell-based; conditions: Klebsiella pneumoniae, read-out: FEP MIC
[9] = test system: P. aeruginosa CDC-0356 (KPC-2, PDC-42); experiment: MIC, rescue of β-lactams in MDR clinical isolates; type: cell-based; conditions: Pseudomonas aeruginosa, read-out: FEP MIC
[10] = test system: K. pneumoniae CDC-0361 (KPC-2, SHV-12, TEM-1); experiment: MIC, rescue of β-lactams in MDR clinical isolates; type: cell-based; conditions: Klebsiella pneumoniae; read-out: FEP MIC
E. coli CDC-0452 (NDM) = experiment: MIC, rescue of β-lactams in MDR clinical isolates; type: cell-based; conditions: Escherichia coli; read-out: FEP MIC
[11] = test system: P. aeruginosa CDC-0457 (VIM); experiment: MIC, rescue of β-lactams in MDR clinical isolates; type: cell-based; conditions: Pseudomonas aeruginosa; read-out: FEP MIC
[12] = test system: K. pneumoniae UNT-065-1 expressing CTX-M-14; experiment: neutropenic mouse lung infection model; type: in vivo; conditions: neutropenic mice
K. pneumoniae (CTX-M-14) = experiment: MIC against the lung model strain; type: cell-based; conditions: Klebsiella pneumoniae
[13] = test system: E. coli UNT-057-1 expressing CTX-M-15; experiment: mouse ascending urinary tract infection model; type: in vivo; conditions: mice, at day 7; BID s.c.; cefepime alone, cefepime/VNRX-5133 16:8, Caz/Avi 16:4 mg/kg/dose
E. coli (CTX-M-15) = experiment: MIC against the urinary tract model strain; type: cell-based; conditions: Escherichia coli

Sequence of IMP-1 (P52699 19-246 limits assumed): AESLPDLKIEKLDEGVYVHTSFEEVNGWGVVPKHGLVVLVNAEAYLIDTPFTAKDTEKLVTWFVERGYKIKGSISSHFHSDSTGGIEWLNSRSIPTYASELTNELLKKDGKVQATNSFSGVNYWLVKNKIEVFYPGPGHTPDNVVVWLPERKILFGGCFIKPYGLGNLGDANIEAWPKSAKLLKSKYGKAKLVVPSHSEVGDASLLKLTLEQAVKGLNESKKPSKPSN
Sequence of NDM-1 (C7C422 29-270 limits assumed): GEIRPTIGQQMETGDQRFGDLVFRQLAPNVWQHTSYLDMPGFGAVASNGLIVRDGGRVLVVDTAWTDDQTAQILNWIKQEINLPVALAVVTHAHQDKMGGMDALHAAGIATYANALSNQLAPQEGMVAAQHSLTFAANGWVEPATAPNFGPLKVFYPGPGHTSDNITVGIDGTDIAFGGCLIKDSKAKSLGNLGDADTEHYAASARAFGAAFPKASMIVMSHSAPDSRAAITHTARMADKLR

## C[C@]1(Cn2ccnn2)[C@H](C(=O)O)N2C(=O)C[C@H]2S1(=O)=O [tazobactam]
NDM-1
  IC50: > 100 µM
IMP-1
  IC50: > 100 µM

## C[C@@H](O)[C@H]1C(=O)N2C(C(=O)O)=C(S[C@@H]3CN[C@H](C(=O)N(C)C)C3)[C@H](C)[C@H]12 [meropenem]
[1]
  MIC: ≥ 32 µg/mL
[2]
  MIC: ≥ 32 µg/mL
[3]
  MIC: ≥ 32 µg/mL
[4]
  MIC: ≥ 32 µg/mL

## O=C(O)C[C@@H]1CC[C@H](NC(=O)Cc2cccs2)B(O)O1 [vaborbactam]
NDM-1
  IC50: > 100 µM
IMP-1
  IC50: > 100 µM

## O=C(O)[C@H]1/C(=C/CO)O[C@@H]2CC(=O)N21 [clavulanic acid]
NDM-1
  IC50: > 100 µM
IMP-1
  IC50: > 100 µM

## CO/N=C(\C(=O)N[C@@H]1C(=O)N2C(C(=O)[O-])=C(C[N+]3(C)CCCC3)CS[C@H]12)c1csc(N)n1 [cefepime]
[5]
  MIC: 16 µg/mL (≈ 33.3 µM)
[6]
  MIC: > 128 µg/mL
[7]
  MIC: 128 µg/mL (≈ 266 µM)
[8]
  MIC: > 128 µg/mL
[9]
  MIC: > 128 µg/mL
[10]
  MIC: 32 µg/mL (≈ 66.6 µM)
E. coli CDC-0452 (NDM)
  MIC: 64 µg/mL (≈ 133 µM)
[11]
  MIC: 16 µg/mL (≈ 33.3 µM)
[12]; at 24 h, cefepime alone 32, cefepime/VNRX-5133 32:16, Caz/Avi 32:8 mg/kg s.c. single dose
  log10 CFU/lung: 9.27 ± 0.21 log10 CFU/lung
[12]; single subcutaneous dose, cefepime 32 mg/kg alone or cefepime/20 32 and 16 mg/kg, 24 h
  reduction in viable bacterial counts in lung tissue: not effective
K. pneumoniae (CTX-M-14)
  MIC: 64 µg/mL (≈ 133 µM)
[13]
  log10 CFU/kidney: 7.25 ± 0.16 log10 CFU/kidney
E. coli (CTX-M-15)
  MIC: 128 µg/mL (≈ 266 µM)
